± gives the expanded uncertainty stated by the source.
Tests used:
[1] = xn = mol fraction of the nth substance listed; settings: 298.15 K, 101 kPa, Liquid
[2] = excess molar enthalpy (molar enthalpy of mixing); xn = mol fraction of the nth substance listed; settings: 298.15 K, 101 kPa, Liquid, Calvet calorimetry

CCCOC=O [propyl methanoate] + ClCCCCCCCl
Settings	excess molar enthalpy [kcal/mol]	mass density [kg/m3]
[1], x1 = 0.0918	–	1053.78 ± 0.43
[1], x1 = 0.1702	–	1044.88 ± 0.41
[1], x1 = 0.2469	–	1035.63 ± 0.39
[1], x1 = 0.3218	–	1026.16 ± 0.37
[1], x1 = 0.3877	–	1017.4 ± 0.36
[1], x1 = 0.4551	–	1008 ± 0.34
[1], x1 = 0.5167	–	998.95 ± 0.32
[1], x1 = 0.5747	–	990.06 ± 0.33
[1], x1 = 0.6303	–	981.16 ± 0.34
[1], x1 = 0.6844	–	972.09 ± 0.36
[1], x1 = 0.7354	–	963.2 ± 0.37
[1], x1 = 0.7849	–	954.19 ± 0.38
[1], x1 = 0.8768	–	936.4 ± 0.4
[1], x1 = 0.9196	–	927.69 ± 0.41
[1], x1 = 0.9603	–	919.06 ± 0.42
[2], x1 = 0.083	0.0159 ± 0.000311	–
[2], x1 = 0.1781	0.0287 ± 0.000406	–
[2], x1 = 0.2715	0.0378 ± 0.000478	–
[2], x1 = 0.3516	0.0422 ± 0.000502	–
[2], x1 = 0.4261	0.0428 ± 0.000526	–
[2], x1 = 0.5	0.0403 ± 0.000502	–
[2], x1 = 0.5567	0.0351 ± 0.000454	–
[2], x1 = 0.6558	0.0259 ± 0.000382	–
[2], x1 = 0.7057	0.0203 ± 0.000335	–
[2], x1 = 0.7584	0.015 ± 0.000311	–
[2], x1 = 0.815	0.00994 ± 0.000263	–
[2], x1 = 0.8628	0.00602 ± 0.000239	–
[2], x1 = 0.91	0.00292 ± 0.000215	–
[2], x1 = 0.9591	0.00213 ± 0.000215	–

ClCCCCCCCl [1,6-dichlorohexane] + CCOC=O
Settings	excess molar enthalpy [kcal/mol]	mass density [kg/m3]
[1], x2 = 0.0997	–	1055.27 ± 0.43
[1], x2 = 0.196	–	1046.53 ± 0.41
[1], x2 = 0.28	–	1038.19 ± 0.4
[1], x2 = 0.3577	–	1029.9 ± 0.38
[1], x2 = 0.4304	–	1021.49 ± 0.36
[1], x2 = 0.4965	–	1013.36 ± 0.35
[1], x2 = 0.558	–	1005.21 ± 0.33
[1], x2 = 0.6159	–	997.06 ± 0.33
[1], x2 = 0.67	–	988.91 ± 0.34
[1], x2 = 0.7203	–	980.91 ± 0.35
[1], x2 = 0.7675	–	973 ± 0.35
[1], x2 = 0.8114	–	965.17 ± 0.36
[1], x2 = 0.8538	–	957.24 ± 0.37
[1], x2 = 0.893	–	949.58 ± 0.38
[1], x2 = 0.9301	–	941.93 ± 0.39
[1], x2 = 0.9649	–	934.51 ± 0.4
[2], x2 = 0.102	0.0409 ± 0.000526	–
[2], x2 = 0.205	0.0712 ± 0.000741	–
[2], x2 = 0.2968	0.09352 ± 0.000908	–
[2], x2 = 0.3852	0.1054 ± 0.001	–
[2], x2 = 0.4641	0.1101 ± 0.00103	–
[2], x2 = 0.5316	0.1113 ± 0.00105	–
[2], x2 = 0.5845	0.1095 ± 0.00103	–
[2], x2 = 0.6442	0.1042 ± 0.001	–
[2], x2 = 0.6907	0.09704 ± 0.000932	–
[2], x2 = 0.7399	0.08726 ± 0.00086	–
[2], x2 = 0.7869	0.0732 ± 0.000765	–
[2], x2 = 0.8348	0.0598 ± 0.000669	–
[2], x2 = 0.8829	0.0418 ± 0.000526	–
[2], x2 = 0.9248	0.0285 ± 0.00043	–
[2], x2 = 0.9656	0.0148 ± 0.000335	–

CCCCOC=O [butyl methanoate] + ClCCCl
Settings	excess molar enthalpy [kcal/mol]	mass density [kg/m3]
[1], x1 = 0.0446	–	1222.63 ± 0.77
[1], x1 = 0.087	–	1201.85 ± 0.73
[1], x1 = 0.1314	–	1180.87 ± 0.68
[1], x1 = 0.1786	–	1159.63 ± 0.64
[1], x1 = 0.2266	–	1138.77 ± 0.6
[1], x1 = 0.277	–	1117.89 ± 0.56
[1], x1 = 0.3837	–	1076.58 ± 0.48
[1], x1 = 0.4403	–	1056.07 ± 0.43
[1], x1 = 0.5	–	1035.47 ± 0.39
[1], x1 = 0.5622	–	1014.9 ± 0.35
[1], x1 = 0.6248	–	995.09 ± 0.33
[1], x1 = 0.6931	–	974.48 ± 0.35
[1], x1 = 0.7645	–	953.92 ± 0.38
[1], x1 = 0.8389	–	933.51 ± 0.4
[2], x1 = 0.0414	-0.00954 ± 0.000287	–
[2], x1 = 0.0923	-0.0212 ± 0.000359	–
[2], x1 = 0.1436	-0.0343 ± 0.000454	–
[2], x1 = 0.1984	-0.0481 ± 0.000574	–
[2], x1 = 0.2527	-0.0619 ± 0.000669	–
[2], x1 = 0.3048	-0.075 ± 0.000765	–
[2], x1 = 0.3561	-0.08504 ± 0.000837	–
[2], x1 = 0.4041	-0.09405 ± 0.000908	–
[2], x1 = 0.4493	-0.1003 ± 0.000956	–
[2], x1 = 0.4629	-0.1006 ± 0.000956	–
[2], x1 = 0.5202	-0.1025 ± 0.00098	–
[2], x1 = 0.5856	-0.1005 ± 0.000956	–
[2], x1 = 0.6594	-0.09278 ± 0.000908	–
[2], x1 = 0.7406	-0.0785 ± 0.000789	–
[2], x1 = 0.829	-0.0569 ± 0.000645	–
[2], x1 = 0.9165	-0.0319 ± 0.000454	–

From the NIST ThermoML archive (doi:10.1016/j.jct.2006.10.008)
